For one assay, the system named is Ascaridia galli. Nature of the assay: In vitro assay Ascaridia galli larval stage 3. Type of assay: cell-based. Conditions: larval stage 3, 20 larvae per well, microscopic examination, read-out: MEC (minimum effective concentration) against Ascaridia galli L3. The source says:
(§1) […] galli (intestinal roundworm of chicken), larval stage 3 (“L3”); and Oesophagostumum dentatum (nodular worm of swine), larval stages 3 and 4 (respectively “L3” and “L4”) where suspended in a nutrient medium and distributed to 96 well plates with 20 larvae per well. The wells were spiked DMSO solutions of the compounds with declining concentration.

The test system of assay [1] is Oesophagostumum dentatum. Nature of the assay: In vitro assay Oesophagostumum dentatum larval stage 3. Type of assay: cell-based. The conditions noted are these: larval stage 3, 20 larvae per well, microscopic examination; read-out: MEC (minimum effective concentration) against Oesophagostumum dentatum L3.
Source text: as §1

The target in assay [2] is T1, human Maxi K channel (BK channel) (Homo sapiens, UniProt Q12791).
T1 construct: expressed in transfected cells; host or cells: CHO K1
T1 sequence (Q12791 1-1178 isoform Q12791-5): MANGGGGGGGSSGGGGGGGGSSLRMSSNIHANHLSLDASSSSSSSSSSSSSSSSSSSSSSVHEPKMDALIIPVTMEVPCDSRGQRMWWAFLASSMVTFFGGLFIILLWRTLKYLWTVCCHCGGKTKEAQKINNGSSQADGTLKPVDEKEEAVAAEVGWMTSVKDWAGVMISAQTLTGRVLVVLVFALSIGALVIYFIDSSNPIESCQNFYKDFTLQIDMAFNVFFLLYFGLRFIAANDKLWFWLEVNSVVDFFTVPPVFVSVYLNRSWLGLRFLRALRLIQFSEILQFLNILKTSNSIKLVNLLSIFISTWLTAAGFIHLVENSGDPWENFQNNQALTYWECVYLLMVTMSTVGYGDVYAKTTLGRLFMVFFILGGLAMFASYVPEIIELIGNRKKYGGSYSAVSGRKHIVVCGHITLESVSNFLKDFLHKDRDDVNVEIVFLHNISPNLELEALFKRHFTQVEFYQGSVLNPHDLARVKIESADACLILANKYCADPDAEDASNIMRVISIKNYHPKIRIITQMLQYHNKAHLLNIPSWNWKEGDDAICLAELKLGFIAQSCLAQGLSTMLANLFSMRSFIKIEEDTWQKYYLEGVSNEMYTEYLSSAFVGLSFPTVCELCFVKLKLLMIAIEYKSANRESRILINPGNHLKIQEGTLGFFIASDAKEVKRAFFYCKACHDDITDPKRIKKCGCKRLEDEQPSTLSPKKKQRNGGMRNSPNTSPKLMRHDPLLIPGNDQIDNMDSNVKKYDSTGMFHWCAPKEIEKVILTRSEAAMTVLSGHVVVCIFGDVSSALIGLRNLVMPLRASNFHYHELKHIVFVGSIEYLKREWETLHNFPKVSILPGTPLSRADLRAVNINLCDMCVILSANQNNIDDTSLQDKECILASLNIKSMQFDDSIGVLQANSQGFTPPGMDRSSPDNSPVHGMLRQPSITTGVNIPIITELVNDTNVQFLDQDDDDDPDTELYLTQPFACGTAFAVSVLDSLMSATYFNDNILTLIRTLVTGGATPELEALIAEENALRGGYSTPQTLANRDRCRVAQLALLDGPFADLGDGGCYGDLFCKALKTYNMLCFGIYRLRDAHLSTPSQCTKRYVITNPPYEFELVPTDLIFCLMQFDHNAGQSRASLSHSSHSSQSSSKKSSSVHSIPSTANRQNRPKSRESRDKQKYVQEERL
T1 sequence (Q16558 whole entry partner): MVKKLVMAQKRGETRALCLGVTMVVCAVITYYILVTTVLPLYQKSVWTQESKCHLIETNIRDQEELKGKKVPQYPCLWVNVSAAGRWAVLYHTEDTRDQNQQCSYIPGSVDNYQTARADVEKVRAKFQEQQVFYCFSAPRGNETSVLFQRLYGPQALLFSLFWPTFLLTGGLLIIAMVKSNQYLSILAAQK
Nature of the assay: Agonistic activity at the human Maxi K channel (BK channel), FLIPR membrane potential in CHO K1 cells. Type of assay: cell-based. Conditions: CHO K1 cells stably transfected with KCNMA1 and beta1 (KCNMB1) subunits, membrane potential dye. The source says:
A CHO K1 cell line was stably transfected with the KCNMA1 (KCa1.1, U11058) and beta1 (KCNMB1) subunits of the human Maxi K channel (Ponte et al, Molecular Pharmacology 2012, 81(4), 567-577).
The complete measurement takes 150 s.

A further assay deals with C. elegans Slo-1a (Caenorhabditis elegans, UniProt Q95V25). The assay is described as follows: Agonistic activity at C. elegans Slo-1a, FLIPR membrane potential in CHO K1 cells. Conditions: EC50 agonistic activity at C. elegans Slo-1a, CHO K1 cells stably transfected with slo-1a, membrane potential dye.
C. elegans Slo-1a, sequence (Q95V25 whole entry): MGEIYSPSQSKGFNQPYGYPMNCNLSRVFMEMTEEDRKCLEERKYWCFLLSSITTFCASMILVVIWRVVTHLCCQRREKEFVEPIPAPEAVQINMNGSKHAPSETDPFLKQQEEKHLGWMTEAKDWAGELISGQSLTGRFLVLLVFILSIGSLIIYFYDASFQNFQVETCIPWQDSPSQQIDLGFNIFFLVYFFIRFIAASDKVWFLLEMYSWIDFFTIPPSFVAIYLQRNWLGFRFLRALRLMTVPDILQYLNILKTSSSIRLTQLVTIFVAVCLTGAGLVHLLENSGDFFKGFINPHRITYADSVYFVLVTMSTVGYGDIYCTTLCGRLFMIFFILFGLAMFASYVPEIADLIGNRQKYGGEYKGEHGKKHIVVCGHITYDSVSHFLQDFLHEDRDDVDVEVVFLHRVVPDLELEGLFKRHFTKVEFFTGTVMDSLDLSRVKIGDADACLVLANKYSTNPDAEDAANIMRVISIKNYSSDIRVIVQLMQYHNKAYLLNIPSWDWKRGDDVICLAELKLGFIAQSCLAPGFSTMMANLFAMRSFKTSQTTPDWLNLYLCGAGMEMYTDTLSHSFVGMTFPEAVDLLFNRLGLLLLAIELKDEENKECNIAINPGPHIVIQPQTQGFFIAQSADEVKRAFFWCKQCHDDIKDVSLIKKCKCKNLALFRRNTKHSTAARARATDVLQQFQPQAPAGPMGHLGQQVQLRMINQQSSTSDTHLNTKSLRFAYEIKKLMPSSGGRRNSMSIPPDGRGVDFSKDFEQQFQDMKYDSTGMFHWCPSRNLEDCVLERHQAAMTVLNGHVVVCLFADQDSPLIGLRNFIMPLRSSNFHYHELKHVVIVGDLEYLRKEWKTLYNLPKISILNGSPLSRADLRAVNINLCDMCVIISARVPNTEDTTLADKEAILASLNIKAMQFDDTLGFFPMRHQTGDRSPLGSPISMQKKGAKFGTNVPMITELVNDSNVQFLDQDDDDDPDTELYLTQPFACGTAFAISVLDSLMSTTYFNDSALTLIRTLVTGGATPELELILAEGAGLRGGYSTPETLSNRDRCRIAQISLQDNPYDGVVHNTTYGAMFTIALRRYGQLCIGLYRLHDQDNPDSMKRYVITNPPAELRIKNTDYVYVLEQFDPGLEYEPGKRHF
Another assay deals with Dirofilaria immitis. Nature of the assay: In vitro assay Dirofilaria immitis L1 (microfilaria), motility. Type of assay: cell-based. The conditions noted are these: 72 h, 3 days incubation, reduction in motility vs DMSO. Here is the method:
Approximately 500 D. immitis microfilaria were added to a microtiter plate containing a nutrient medium and the test compound in DMSO at varying concentrations. After incubation for 3 days, activity was evaluated as reduction in motility as compared to DMSO as negative control. Compounds were tested in duplicates. Based on the concentration response curves EC50 values were calculated.

Assay [3] has as its system Oesophagostumum dentatum. The assay is described as follows: In vitro assay Oesophagostumum dentatum larval stage 4. Conditions: larval stage 4, 20 larvae per well, microscopic examination; read-out: MEC (minimum effective concentration) against Oesophagostumum dentatum L4. Type of assay: cell-based.
Source text: as §1

For 35 compounds, minimal effective concentration and EC50 results are on record in US12692233B2, “Anthelmintic compounds comprising a pyridine structure” (Intervet Inc., priority 2020, dated 2026).

pEC50: −log10 of the molar value.

Description for C. elegans Slo-1a: A CHO K1 cell line stably transfected with the Caenorhabditis elegans slo-1a (accession no Y51A2D.19a) was established. Cells were seeded in microtiter plates (black 384-well MTP, clear bottom) in a concentration of 10,000 cells/well in 25 μl medium and cultured for 20 to 24 hours at 37° C. and 5% CO2. After incubation, 25 μl of FMP-dye Blue-Tyrode's was added to each well and incubated at room temperature for 30 min. Ten minutes after addition of 12.5 μl compound solution, the plates are transferred to the FLIPR for measurement.
For the membrane potential measurements, the plates were placed in the FLIPR Penta (Molecular Devices). The baseline measurement of the fluorescence was stared for 20 sec (Exc. 510-545 nm, Emm. 565-625 nm). Potential channel opening measurement was started by addition of 25 μl of KCl-Tyrode (final assay concentration of the KCl-Tyrode: 70 mM KCl, 2 mM CaCl2, 1 mM MgCl2, 0.8 mM NaH2PO4, 5 mM Glucose, 28 mM Hepes, pH 7.4, including the voltage sensitive dye). The complete measurement takes 150 s.
EC50 values were determined in triplicate utilizing compound dilution series. The data were determined at least in two independent tests. The data were proceeded by using the ActivityBase XE Runner software (IDBS) for curve fitting and calculation of the half-maximal effective concentration.

By pEC50 is commonly meant the negative decadic logarithm of the EC50, by convention in mol/L. As for `CN(C)c1cc(Sc2cc(Cl)cc(Cl)c2)ncc1C(=O)Nc1cccc2ccccc12` [Compound 16], the minimal effective concentration with Ascaridia galli and in the assay with Oesophagostumum dentatum [1] was not above 50 µM each time. Besides, the pEC50 in assay [2] is less than 4.52.
As to `O=C(N[C@H]1CCc2ccccc21)c1cnc(Sc2cccc(Cl)c2Cl)cc1N1CCOCC1` [Compound 23], the minimal effective concentration in the assay on Ascaridia galli was not above 50 µM. Besides, the pEC50 was more than 6.00 at C. elegans Slo-1a, less than 4.52 in assay [2] and more than 5.00 in the assay with Dirofilaria immitis.
As for `CN(C)c1cc(Oc2cc(Cl)cc(Cl)c2)ncc1C(=O)N[C@@H]1CCOc2ccccc21` [Compound 29], the minimal effective concentration with Ascaridia galli and with Oesophagostumum dentatum [3] was not above 50 µM throughout. Besides, the pEC50 in assay [2] is less than 4.52; with Dirofilaria immitis, more than 5.00.
Consider `CN(C)c1cc(Oc2cc(Cl)cc(Cl)c2)ncc1C(=O)Nc1cccc2ccccc12` [Compound 32], for which the minimal effective concentration in the assay with Oesophagostumum dentatum [1] is not above 50 µM. Besides, the pEC50 in assay [2] is less than 4.52; with Dirofilaria immitis, more than 5.00.
Regarding `O=C(Nc1cccc2ccccc12)c1cnc(Oc2cccc(Cl)c2Cl)cc1N1CCOCC1` [Compound 45], the results for the negative logarithm of the EC50 (pEC50) (in assay [2]; in the assay with Dirofilaria immitis) were less than 4.52 and more than 5.00, respectively.
`O=C(Nc1csc2ccccc12)c1cnc(Sc2cccc(Cl)c2Cl)cc1N1CCOCC1` [Compound 48]: the minimal effective concentration in the assay on Ascaridia galli and in the assay with Oesophagostumum dentatum [3] was not above 50 µM throughout. The pEC50 in assay [2] was less than 4.52.
With `O=C(N[C@@H]1CCOc2ccccc21)c1cnc(Sc2cccc(Cl)c2Cl)cc1N1CCOCC1` [Compound 50], the pEC50 in assay [2] is less than 4.52; with Dirofilaria immitis, more than 5.00.
Turning to `CSc1cc(Sc2cccc(Cl)c2Cl)ncc1C(=O)N[C@H]1CCc2ccccc21` [Compound 53], the figures for the pEC50 (at C. elegans Slo-1a; in assay [2]) were more than 5.00 and less than 4.52, respectively. Further, the minimal effective concentration with Oesophagostumum dentatum [3] was not above 50 µM.
With `CSc1cc(Oc2cccc(Cl)c2Cl)ncc1C(=O)N[C@H]1CCCc2ccccc21` [Compound 56], the minimal effective concentration with Ascaridia galli was not above 50 µM. In addition, the pEC50 on C. elegans Slo-1a is more than 5.00; in assay [2], less than 4.52.
Regarding `CSc1cc(Oc2cccc(Cl)c2Cl)ncc1C(=O)N[C@H]1CCc2ccccc21` [Compound 58], in the assay with Ascaridia galli, the minimal effective concentration is not above 50 µM. Further, the results for the pEC50 (on C. elegans Slo-1a; in assay [2]) were more than 5.00 and less than 4.52, respectively.
Consider `CSc1cc(Oc2cc(Cl)cc(Cl)c2)ncc1C(=O)N[C@@H]1CCOc2ccccc21` [Compound 60], for which the minimal effective concentration in the assay with Oesophagostumum dentatum [1] was not above 50 µM. In assay [2], this compound gave a pEC50 of less than 4.52.
For the compound `CCSc1cc(Sc2cccc(Cl)c2Cl)ncc1C(=O)N[C@H]1CCCc2ccccc21` [Compound 62], the minimal effective concentration in the assay with Ascaridia galli and with Oesophagostumum dentatum [1] was not above 50 µM each time. Also, the pEC50 in assay [2] was less than 4.52.
Turning to `COc1cc(Sc2cccc(Cl)c2Cl)ncc1C(=O)N[C@H]1CCCc2ccccc21` [Compound 66], the pEC50 on C. elegans Slo-1a was more than 5.00; in assay [2] it was less than 4.52. The minimal effective concentration in the assay on Oesophagostumum dentatum [1] and in the assay on Oesophagostumum dentatum [3] was not above 50 µM each time.
`COc1cc(Sc2cccc(Cl)c2Cl)ncc1C(=O)N[C@H]1CCOc2ccccc21` [Compound 68]: the results for the pEC50 (at C. elegans Slo-1a; in assay [2]) were more than 5.00 and less than 4.52, respectively. Further, the minimal effective concentration with Oesophagostumum dentatum [3] is not above 50 µM.
Regarding `CCSc1cc(Sc2cc(Cl)cc(Cl)c2)ncc1C(=O)N[C@H]1CCOc2ccccc21` [Compound 74], the minimal effective concentration in the assay with Oesophagostumum dentatum [1] and in the assay with Oesophagostumum dentatum [3] was not above 50 µM each time. For the same compound, the pEC50 in assay [2] is less than 4.52.
For the compound `COc1cc(Sc2cc(Cl)cc(Cl)c2)ncc1C(=O)N[C@H]1CCOc2ccccc21` [Compound 83], the minimal effective concentration with Ascaridia galli and with Oesophagostumum dentatum [1] was not above 50 µM each time. Moreover, the figures for the negative-log EC50 (pEC50) (at C. elegans Slo-1a; in assay [2]) were more than 5.00 and less than 4.52, respectively.
`COc1cc(Oc2cc(Cl)cc(Cl)c2)ncc1C(=O)N[C@H]1CCCc2ccccc21` [Compound 85]: the minimal effective concentration in the assay with Ascaridia galli and with Oesophagostumum dentatum [1] was not above 50 µM throughout. Further, the pEC50 in assay [2] was less than 4.52; with Dirofilaria immitis it was more than 5.00.
Regarding `COc1cc(Oc2cc(Cl)cc(Cl)c2)ncc1C(=O)N[C@H]1CCOc2ccccc21` [Compound 86], in the assay with Oesophagostumum dentatum [1], the minimal effective concentration is not above 50 µM. Further, in assay [2], the pEC50 was less than 4.52.
In the case of `CCOc1cc(Oc2cccc(Cl)c2Cl)ncc1C(=O)N[C@H]1CCOc2ccccc21` [Compound 92], the minimal effective concentration in the assay with Oesophagostumum dentatum [3] is not above 50 µM. Further, the pEC50 in assay [2] is less than 4.52.
In the case of `COc1cc(Oc2cccc(Cl)c2Cl)ncc1C(=O)N[C@H]1CCCc2ccccc21` [Compound 96], the minimal effective concentration in the assay on Ascaridia galli was not above 50 µM. For the same compound, the values for the pEC50 (in assay [2]; in the assay on Dirofilaria immitis) were less than 4.52 and more than 5.00, respectively.
Turning to `CCOc1cc(Sc2cc(Cl)cc(Cl)c2)ncc1C(=O)N[C@H]1CCCc2ccccc21` [Compound 99], in the assay on Oesophagostumum dentatum [1], the minimal effective concentration was not above 50 µM. In assay [2], this compound had a pEC50 of less than 4.52.
On to `CN(C)c1cc(S(=O)(=O)c2cc(Cl)cc(Cl)c2)ncc1C(=O)N[C@H]1CCOc2ccccc21` [Compound 100], for which the minimal effective concentration in the assay on Ascaridia galli and with Oesophagostumum dentatum [1] was not above 50 µM each time. Also, the figures for the negative-log EC50 (pEC50) (on C. elegans Slo-1a; in assay [2]) were more than 5.00 and less than 4.52, respectively.
Regarding `CN(C)c1cc([S+]([O-])c2cc(Cl)cc(Cl)c2)ncc1C(=O)N[C@H]1CCCc2ccccc21` (stereo partly drawn) [Compound 101], the minimal effective concentration in the assay with Oesophagostumum dentatum [1] was not above 50 µM. The pEC50 in assay [2] was less than 4.52; in the assay with Dirofilaria immitis, more than 5.00.
Consider `CN(C)c1cc(S(=O)(=O)c2cc(Cl)cc(Cl)c2)ncc1C(=O)N[C@H]1CCCc2ccccc21` [Compound 102, (S)-6-((3,5-dichlorophenyl)sulfonyl)-4-(dimethylamino)-N-(1,2,3,4-tetrahydronaphthalen-1-yl)nicotinamide], for which the minimal effective concentration in the assay on Oesophagostumum dentatum [3] is not above 50 µM. For the same compound, the pEC50 was less than 4.52 in assay [2] and more than 5.00 in the assay on Dirofilaria immitis.
`O=C(N[C@H]1CCCc2ccccc21)c1cnc(Nc2cc(Cl)cc(Cl)c2)cc1N1CCOCC1` [Compound 106]: the minimal effective concentration in the assay on Ascaridia galli is not above 50 µM. The results for the pEC50 (on C. elegans Slo-1a; in assay [2]) were more than 5.00 and less than 4.52, respectively.
`O=C(N[C@H]1CCOc2ccccc21)c1cnc(Nc2cc(Cl)cc(Cl)c2)cc1N1CCOCC1` [Compound 107]: the minimal effective concentration in the assay on Ascaridia galli is not above 50 µM. Moreover, the pEC50 is more than 5.00 on C. elegans Slo-1a and 4.52 to 5.00 in assay [2].
With `CN(C)c1cc(Nc2cc(Cl)cc(Cl)c2)ncc1C(=O)N[C@H]1CCCc2ccccc21` [Compound 108], the minimal effective concentration with Ascaridia galli is not above 50 µM. Moreover, the figures for the pEC50 (at C. elegans Slo-1a; in assay [2]) were more than 5.00 and less than 4.52, respectively.
For `O=C(N[C@H]1CCc2ccccc21)c1cnc(Nc2cc(Cl)cc(Cl)c2)cc1N1CCOCC1` [Compound 109], the minimal effective concentration with Ascaridia galli and with Oesophagostumum dentatum [1] was not above 50 µM in each case. The pEC50 was more than 5.00 at C. elegans Slo-1a and 4.52 to 5.00 in assay [2].
Turning to `CN(C)c1cc(Cc2cc(Cl)cc(Cl)c2)ncc1C(=O)N[C@H]1CCc2ccccc21` [Compound 110], the minimal effective concentration with Oesophagostumum dentatum [1] and in the assay on Oesophagostumum dentatum [3] was not above 50 µM each time. The compound further gave a pEC50 in assay [2] of less than 4.52.
Consider `CN(C)c1cc(Cc2cc(Cl)cc(Cl)c2)ncc1C(=O)N[C@H]1CCCc2ccccc21` [Compound 111], for which the minimal effective concentration in the assay with Oesophagostumum dentatum [1] and with Oesophagostumum dentatum [3] was not above 50 µM each time. Also, the negative logarithm of the EC50 (pEC50) in assay [2] was less than 4.52.
In the case of `O=C(N[C@H]1CCOc2ccccc21)c1cnc(Cc2cc(Cl)cc(Cl)c2)cc1N1CCOCC1` [Compound 112], the minimal effective concentration in the assay on Ascaridia galli and in the assay on Oesophagostumum dentatum [1] was not above 50 µM throughout. In addition, the negative-log EC50 (pEC50) is more than 5.00 at C. elegans Slo-1a and less than 4.52 in assay [2].
Take `O=C(N[C@H]1CCCc2ccccc21)c1cnc(Cc2cc(Cl)cc(Cl)c2)cc1N1CCOCC1` [Compound 113]: the pEC50 on C. elegans Slo-1a was more than 5.00; in assay [2] it was less than 4.52. In addition, the minimal effective concentration in the assay on Oesophagostumum dentatum [1] was not above 50 µM.
In the case of `CN(C)c1cc(Nc2cc(Cl)cc(Cl)c2)ncc1C(=O)N[C@H]1CCOc2ccccc21` [Compound 115], the minimal effective concentration with Ascaridia galli and with Oesophagostumum dentatum [1] was not above 50 µM in each case. Further, the pEC50 at C. elegans Slo-1a is more than 5.00; in assay [2], less than 4.52.
Take `CN(C)c1cc(Nc2cc(Cl)cc(Cl)c2)ncc1C(=O)N[C@H]1CCc2ccccc21` [Compound 116]: the minimal effective concentration with Ascaridia galli, with Oesophagostumum dentatum [1] and in the assay with Oesophagostumum dentatum [3] was not above 50 µM in each case. Also, the pEC50 at C. elegans Slo-1a was more than 5.00; in assay [2], less than 4.52.
Turning to `O=C(N[C@H]1CCc2ccccc21)c1cnc(Cc2cc(Cl)cc(Cl)c2)cc1N1CCOCC1` [Compound 117], the minimal effective concentration with Ascaridia galli, in the assay on Oesophagostumum dentatum [1] and in the assay with Oesophagostumum dentatum [3] was not above 50 µM throughout. Besides, on C. elegans Slo-1a, the pEC50 was more than 5.00.
